Values of other authors as cited in US20090318549A1, “COMBINATION TREATMENT OF GLAUCOMA” (QLT Plug Delivery, Inc., priority 2008, published 2009).

Legend:
[1] = man, after topical administration

time at which the peak concentration in the aqueous humor is reached [1]: about two
solubility in acetone, ethanol, ethyl acetate, isopropanol, methanol and octanol (acetone, ethanol, ethyl acetate, isopropanol, methanol, octanol): freely soluble
solubility in acetonitrile (acetonitrile): very soluble
solubility in water (water): practically insoluble
Structure (SMILES): CC(C)OC(=O)CCC/C=C\C[C@@H]1[C@@H](CC[C@@H](O)CCc2ccccc2)[C@H](O)C[C@@H]1O [Latanoprost, isopropyl-(Z)-7[(1R,2R,3R,5S)3,5-dihydroxy-2-[(3R)-3-hydroxy-5-phenylpentyl]cyclopentyl]-5-heptenoate]
